Assay results published in the NIST ThermoML archive (doi:10.1016/j.jct.2005.01.017).

Test: xn = mol fraction of the nth substance listed
Conditions: 101 kPa, Liquid

CC1COC(=O)O1 (stereo not drawn) [4-methyl-1,3-dioxolan-2-one] + Cc1ccccc1C
Conditions | mass density [kg/m3]
293.15 K, x2 = 0 | 1200.25
293.15 K, x2 = 0.0538 | 1176.67
293.15 K, x2 = 0.1287 | 1145.43
293.15 K, x2 = 0.1843 | 1123.36
293.15 K, x2 = 0.2358 | 1103.71
293.15 K, x2 = 0.3149 | 1074.93
293.15 K, x2 = 0.3559 | 1060.64
293.15 K, x2 = 0.4247 | 1037.54
293.15 K, x2 = 0.4792 | 1020.01
293.15 K, x2 = 0.5345 | 1002.84
293.15 K, x2 = 0.6031 | 982.36
293.15 K, x2 = 0.6638 | 964.97
293.15 K, x2 = 0.7213 | 949.05
293.15 K, x2 = 0.7832 | 932.49
293.15 K, x2 = 0.8529 | 914.51
293.15 K, x2 = 0.9284 | 895.76
303.15 K, x2 = 0 | 1180.55
303.15 K, x2 = 0.0613 | 1155.03
303.15 K, x2 = 0.1273 | 1128.84
303.15 K, x2 = 0.1732 | 1111.36
303.15 K, x2 = 0.2583 | 1080.45
303.15 K, x2 = 0.3341 | 1054.45
303.15 K, x2 = 0.3619 | 1045.26
303.15 K, x2 = 0.4282 | 1024.01
303.15 K, x2 = 0.4911 | 1004.69
303.15 K, x2 = 0.5538 | 986.2
303.15 K, x2 = 0.6132 | 969.33
303.15 K, x2 = 0.6739 | 952.71
303.15 K, x2 = 0.7428 | 934.53
303.15 K, x2 = 0.8023 | 919.3
303.15 K, x2 = 0.8631 | 904.39
303.15 K, x2 = 0.9347 | 887.3
313.15 K, x2 = 0 | 1161.28
313.15 K, x2 = 0.0643 | 1135.09
313.15 K, x2 = 0.1138 | 1115.77
313.15 K, x2 = 0.1729 | 1093.62
313.15 K, x2 = 0.2483 | 1066.72
313.15 K, x2 = 0.3248 | 1040.87
313.15 K, x2 = 0.3958 | 1018.07
313.15 K, x2 = 0.4587 | 998.77
313.15 K, x2 = 0.518 | 981.29
313.15 K, x2 = 0.5628 | 968.51
313.15 K, x2 = 0.6345 | 948.78
313.15 K, x2 = 0.6948 | 932.83
313.15 K, x2 = 0.7539 | 917.73
313.15 K, x2 = 0.8039 | 905.34
313.15 K, x2 = 0.8621 | 891.32
313.15 K, x2 = 0.9357 | 874.17
323.15 K, x2 = 0 | 1142.43
323.15 K, x2 = 0.0527 | 1120.67
323.15 K, x2 = 0.1328 | 1089.28
323.15 K, x2 = 0.1842 | 1070.13
323.15 K, x2 = 0.2487 | 1047.11
323.15 K, x2 = 0.3398 | 1016.41
323.15 K, x2 = 0.3781 | 1004.09
323.15 K, x2 = 0.4487 | 982.22
323.15 K, x2 = 0.5031 | 966.07
323.15 K, x2 = 0.5529 | 951.78
323.15 K, x2 = 0.6249 | 931.92
323.15 K, x2 = 0.6843 | 916.18
323.15 K, x2 = 0.7451 | 900.64
323.15 K, x2 = 0.8146 | 883.52
323.15 K, x2 = 0.8702 | 870.29
323.15 K, x2 = 0.9429 | 853.56
333.15 K, x2 = 0 | 1123.99
333.15 K, x2 = 0.0578 | 1099.25
333.15 K, x2 = 0.1298 | 1070.06
333.15 K, x2 = 0.1844 | 1049.03
333.15 K, x2 = 0.2358 | 1030.04
333.15 K, x2 = 0.3139 | 1002.61
333.15 K, x2 = 0.3847 | 979.1
333.15 K, x2 = 0.4412 | 961.2
333.15 K, x2 = 0.5055 | 941.69
333.15 K, x2 = 0.5572 | 926.61
333.15 K, x2 = 0.6148 | 910.43
333.15 K, x2 = 0.6627 | 897.43
333.15 K, x2 = 0.7365 | 878.16
333.15 K, x2 = 0.7947 | 863.56
333.15 K, x2 = 0.8634 | 846.95
333.15 K, x2 = 0.9354 | 830.22
343.15 K, x2 = 0 | 1105.98
343.15 K, x2 = 0.0527 | 1081.81
343.15 K, x2 = 0.1278 | 1049.31
343.15 K, x2 = 0.1782 | 1028.67
343.15 K, x2 = 0.2476 | 1001.67
343.15 K, x2 = 0.3279 | 972.32
343.15 K, x2 = 0.3841 | 952.89
343.15 K, x2 = 0.4529 | 930.23
343.15 K, x2 = 0.5139 | 911.13
343.15 K, x2 = 0.5732 | 893.36
343.15 K, x2 = 0.6241 | 878.7
343.15 K, x2 = 0.6742 | 864.77
343.15 K, x2 = 0.7246 | 851.23
343.15 K, x2 = 0.7726 | 838.75
343.15 K, x2 = 0.8523 | 818.84
343.15 K, x2 = 0.9274 | 800.96
353.15 K, x2 = 0 | 1088.38
353.15 K, x2 = 0.0639 | 1056.4
353.15 K, x2 = 0.1128 | 1033.26
353.15 K, x2 = 0.1832 | 1001.84
353.15 K, x2 = 0.2478 | 974.79
353.15 K, x2 = 0.3255 | 944.31
353.15 K, x2 = 0.3859 | 922.03
353.15 K, x2 = 0.4628 | 895.28
353.15 K, x2 = 0.5248 | 874.93
353.15 K, x2 = 0.5819 | 857.07
353.15 K, x2 = 0.6249 | 844.14
353.15 K, x2 = 0.6829 | 827.36
353.15 K, x2 = 0.7249 | 815.64
353.15 K, x2 = 0.7821 | 800.25
353.15 K, x2 = 0.8698 | 777.8

CC1COC(=O)O1 (stereo not drawn) [4-methyl-1,3-dioxolan-2-one] + Cc1cccc(C)c1
Conditions | mass density [kg/m3]
293.15 K, x2 = 0 | 1200.25
293.15 K, x2 = 0.0576 | 1173.76
293.15 K, x2 = 0.1263 | 1143.64
293.15 K, x2 = 0.1735 | 1123.83
293.15 K, x2 = 0.2267 | 1102.36
293.15 K, x2 = 0.2867 | 1079.14
293.15 K, x2 = 0.3548 | 1054
293.15 K, x2 = 0.4243 | 1029.6
293.15 K, x2 = 0.4671 | 1015.15
293.15 K, x2 = 0.5341 | 993.4
293.15 K, x2 = 0.5811 | 978.7
293.15 K, x2 = 0.6532 | 957.01
293.15 K, x2 = 0.7213 | 937.38
293.15 K, x2 = 0.7831 | 920.23
293.15 K, x2 = 0.8421 | 904.39
293.15 K, x2 = 0.9212 | 883.89
303.15 K, x2 = 0 | 1180.56
303.15 K, x2 = 0.0476 | 1159.4
303.15 K, x2 = 0.1178 | 1129.53
303.15 K, x2 = 0.1822 | 1103.48
303.15 K, x2 = 0.2248 | 1086.93
303.15 K, x2 = 0.2978 | 1059.75
303.15 K, x2 = 0.3681 | 1034.91
303.15 K, x2 = 0.4348 | 1012.48
303.15 K, x2 = 0.5038 | 990.33
303.15 K, x2 = 0.5598 | 973.11
303.15 K, x2 = 0.6139 | 957.05
303.15 K, x2 = 0.6738 | 939.89
303.15 K, x2 = 0.7355 | 922.85
303.15 K, x2 = 0.8021 | 905.11
303.15 K, x2 = 0.8837 | 884.19
303.15 K, x2 = 0.9475 | 868.42
313.15 K, x2 = 0 | 1161.28
313.15 K, x2 = 0.0564 | 1137.19
313.15 K, x2 = 0.1291 | 1107.58
313.15 K, x2 = 0.1781 | 1088.5
313.15 K, x2 = 0.2378 | 1066.16
313.15 K, x2 = 0.3021 | 1043.18
313.15 K, x2 = 0.3614 | 1022.91
313.15 K, x2 = 0.4243 | 1002.32
313.15 K, x2 = 0.4861 | 982.96
313.15 K, x2 = 0.5349 | 968.22
313.15 K, x2 = 0.5924 | 951.44
313.15 K, x2 = 0.6521 | 934.66
313.15 K, x2 = 0.7134 | 918.04
313.15 K, x2 = 0.7634 | 904.91
313.15 K, x2 = 0.8325 | 887.34
313.15 K, x2 = 0.9334 | 862.75
323.15 K, x2 = 0 | 1142.43
323.15 K, x2 = 0.0525 | 1120.74
323.15 K, x2 = 0.1203 | 1093.93
323.15 K, x2 = 0.1832 | 1070.24
323.15 K, x2 = 0.2498 | 1046.31
323.15 K, x2 = 0.3103 | 1025.54
323.15 K, x2 = 0.3667 | 1006.98
323.15 K, x2 = 0.4327 | 986.16
323.15 K, x2 = 0.4962 | 967.01
323.15 K, x2 = 0.5587 | 948.93
323.15 K, x2 = 0.6148 | 933.3
323.15 K, x2 = 0.6813 | 915.46
323.15 K, x2 = 0.7539 | 896.75
323.15 K, x2 = 0.8013 | 884.94
323.15 K, x2 = 0.8625 | 870.1
323.15 K, x2 = 0.9346 | 853.17
333.15 K, x2 = 0 | 1123.99
333.15 K, x2 = 0.0478 | 1104.87
333.15 K, x2 = 0.1249 | 1075.39
333.15 K, x2 = 0.1942 | 1050.25
333.15 K, x2 = 0.2571 | 1028.52
333.15 K, x2 = 0.3245 | 1006.29
333.15 K, x2 = 0.3878 | 986.36
333.15 K, x2 = 0.4313 | 973.16
333.15 K, x2 = 0.5138 | 949.16
333.15 K, x2 = 0.582 | 930.28
333.15 K, x2 = 0.6842 | 903.43
333.15 K, x2 = 0.7323 | 891.34
333.15 K, x2 = 0.7723 | 881.53
333.15 K, x2 = 0.8248 | 868.96
333.15 K, x2 = 0.8833 | 855.34
333.15 K, x2 = 0.9429 | 841.84
343.15 K, x2 = 0 | 1105.98
343.15 K, x2 = 0.0634 | 1081.55
343.15 K, x2 = 0.1278 | 1057.84
343.15 K, x2 = 0.1798 | 1039.5
343.15 K, x2 = 0.2348 | 1020.82
343.15 K, x2 = 0.3013 | 999.21
343.15 K, x2 = 0.3703 | 977.83
343.15 K, x2 = 0.4259 | 961.33
343.15 K, x2 = 0.4829 | 945.05
343.15 K, x2 = 0.5329 | 931.26
343.15 K, x2 = 0.5928 | 915.31
343.15 K, x2 = 0.6528 | 899.92
343.15 K, x2 = 0.7132 | 884.96
343.15 K, x2 = 0.7829 | 868.32
343.15 K, x2 = 0.8532 | 852.13
343.15 K, x2 = 0.9253 | 836.07
353.15 K, x2 = 0 | 1088.38
353.15 K, x2 = 0.0622 | 1065.11
353.15 K, x2 = 0.1199 | 1044.44
353.15 K, x2 = 0.1874 | 1021.32
353.15 K, x2 = 0.2401 | 1004.03
353.15 K, x2 = 0.3149 | 980.58
353.15 K, x2 = 0.3871 | 959.07
353.15 K, x2 = 0.451 | 940.91
353.15 K, x2 = 0.5249 | 920.84
353.15 K, x2 = 0.5832 | 905.67
353.15 K, x2 = 0.6591 | 886.72
353.15 K, x2 = 0.7249 | 870.97
353.15 K, x2 = 0.7719 | 860.05
353.15 K, x2 = 0.8529 | 841.86
353.15 K, x2 = 0.8941 | 832.88
353.15 K, x2 = 0.9483 | 821.31
